# Results taken from patent US20060014231A1, “Methods and compositions to promote bone homeostasis” (priority 2004, published 2006).
# Columns and labels:
# NR1H3 [1] = molecular target: T1, NR1H3 (Homo sapiens, UniProt Q13133); assay: Alkaline phosphatase (AP) assay in MPCs infected with Ad-NR1H3 and treated with ligand; assay type: cell-based
# T1 construct: amplification of the complete open reading frame from ATG start codon to the stop codon of drugable genes; expressed in transfected cells; host or cells: primary human bone-marrow mesenchymal progenitor cells (MPCs), adenoviral transduction (Ad5-NR1H3 with Ad-hCAR)
# T1 sequence (Q13133 1-447): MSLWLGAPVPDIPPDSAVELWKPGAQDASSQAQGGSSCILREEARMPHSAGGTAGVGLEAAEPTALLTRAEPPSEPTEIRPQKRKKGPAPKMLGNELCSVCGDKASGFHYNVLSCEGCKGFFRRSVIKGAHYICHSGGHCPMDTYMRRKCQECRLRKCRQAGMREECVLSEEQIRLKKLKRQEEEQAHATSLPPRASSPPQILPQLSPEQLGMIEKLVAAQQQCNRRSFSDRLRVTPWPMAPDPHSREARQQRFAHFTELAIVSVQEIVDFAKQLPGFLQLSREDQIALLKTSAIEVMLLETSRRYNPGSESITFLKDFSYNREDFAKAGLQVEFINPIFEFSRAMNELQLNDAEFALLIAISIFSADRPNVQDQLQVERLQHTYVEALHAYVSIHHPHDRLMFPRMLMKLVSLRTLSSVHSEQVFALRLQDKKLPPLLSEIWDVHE
# Method: Cellular AP activity is determined 6 days after the infection (or ligand addition—see below). The principle of the assays is depicted in FIG. 2. Mesenchymal stem cells derived from bone marrow are infected with the FLeXSelect™ cDNA library viruses in the presence of Ad5C15-hCAR or Ad5C20-hCAR virus. Six days after the start of infection or treatment with a ligand, endogenous alkaline phosphatase activity is measured following addition of 4-methylumbelliferyl […] (MUP) substrate.
# The stocks of the Ad-control-viruses are generated in 96 well plates (control plate). The 2 μl volume corresponds to a theoretical MOI of 5000. Controls are: P1=Ad-BMP2; P2=Ad-H4-2; P3=Ad-H4-291; N1=Ad-LacZ; N2=Ad-empty; N3=Ad-eGFP. Up-regulation of alkaline phosphatase is read at 6 days post infection (6 dpi): 15 μl 4-Methylumbelliferyl-phosphate (MUP, Sigma) is added to each well, the plates are incubated for 15 min at 37° C. and monitored for AP activity using a fluorescence plate reader (Fluostar, BMG).
# These dose-response curves are depicted in FIG. 5. […] MPCs are seeded on day 0 at 1000 cells per well of a 384 well plate and co-infected the next day using AdC51-hCAR (MOI 250) and different MOIs of Ad5-NR1H3 (MOI 12000, 4000, 1333, 444).
# After 6 days, medium is removed and replaced with fresh medium containing the same concentrations of the compound GW3965. Readouts of AP activity are performed at several time points after the start of the experiment, typically after 7, 10 and 13 days.
# After 6 days, medium is removed and replaced with fresh medium containing the same concentrations of the compound APD.
# NR1H3 [2] = molecular target: T1, NR1H3; assay: Osteogenic marker mRNA levels in MPCs, Ad-NR1H3+T0901317 (rtRT-PCR); assay type: cell-based; conditions: Ad-NR1H3+T0901317 (1 μM); up-regulated = 4-fold higher than Ad-eGFP or Ad-luciferase; one or more time points
# Method: 100,000 MPCs are seeded in each well of a 6 well plate in 2 ml MPC medium, containing 10% FCS. The next day, after incubation at 37° C., 10% CO2 in a humidified incubator, cells are co-infected with AdC15-hCAR (final MOI of 750) and Ad-NR5A2, Ad-NR1H3+T0901317 (1 μM) or Ad-BMP2 (positive control) or Ad-eGFP or Ad-luciferase as negative controls (final MOIs of 1250 and 2500). Cells are incubated at 37° C., 10% CO2 in a humidified incubator for a further six days unless cells are already harvested for RNA isolation. Virus is removed and replaced by 2 ml fresh OS medium (proprietary medium containing 10% FCS). Over the next 3 weeks, medium is refreshed 3 times per 2 weeks. Every other time, medium is refreshed half or completely. Monolayers are harvested at several time points (see FIG. 15), total RNA is harvested and quantified and rtRT-PCRs are run as follows: monolayers are washed with ice cold PBS and harvested by adding SV RNA Lysis Buffer. Total RNA is prepared using the SV Total RNA isolation System (Promega, Cat # Z3100). RNA concentration is measured with the Ribogreen RNA Quantification kit (Molecular Probes, Leiden, The Netherlands, Cat No. R-11490). cDNA synthesis is performed using 20 ng total RNA per reaction using the TaqMan Universal PCR Master Mix, No AmpErase UNG, kit (Applied Biosystems, Warrington, UK, Part number 4324018). For each reverse transcriptase (RT) reaction a minus-RT reaction (negative control: no enzyme included in the reaction) is performed. The real-time reverse transcriptase (rtRT)-PCR reaction is performed with gene specific primers on both cDNA and minus-RT samples, using the SYBR Green PCR Master Mix (Applied Biosystems, Warrington, UK, Part number 4309155). Primers are quality controlled by performing PCR reactions on human genomic DNA and on plasmids containing the cDNA encoded by the gene studied if available. If the quality is unsatisfactory, additional primers are designed or validated primer sets are purchased (ABI). For the normalization of the expression levels a RT-PCR reaction is performed on human P-actin using the Human P-actin kit (Applied Biosystems, Warrington, UK, Part number 4310881E). The following program is run on a real-time PCR apparatus (ABI PRISM 7000 Sequence Detection System): 10 min at 25° C., 30 min at 48° C., 5 min at 95° C.
# Expression levels for osteogenic marker genes are first normalized for beta-actin levels. The resulting data for Ad-BMP2, Ad-NR5A2 and Ad-NR1H3+T0901317 (1 μM) samples are then compared to those of Ad-eGFP or Ad-luciferase negative control samples, harvested at the same time points, for cells infected at the same MOI.
smiles,measurement,setting,value
O=S(=O)(c1ccccc1)N(CC(F)(F)F)c1ccc(C(O)(C(F)(F)F)C(F)(F)F)cc1 [T0901317],induction of AP activity in MPC isolates from 4 different donors,"NR1H3 [1]; Ad-NR1H3 MOI 2500 + T0901317 at different concentrations, 6 days",induce AP activity to similar extents
same,up-regulation of endogenous alkaline phosphatase (AP) activity,"NR1H3 [1]; MPCs infected with Ad-NR1H3, increasing ligand concentrations, MUP fluorescence readout",dose-dependently increase
same,BAP mRNA expression,NR1H3 [2],up-regulated
same,PTHR1 mRNA expression,NR1H3 [2],up-regulated
same,RANKL mRNA expression,NR1H3 [2],up-regulated
same,aromatase mRNA expression,NR1H3 [2],up-regulated
same,osteopontin mRNA expression,NR1H3 [2],up-regulated
